# Measurements as given in paper PMC5025041 (Journal of chromatography. A, 2015).
# Where two headings read alike, the source gives them in different places.
# How the values were obtained:
# [1] = test system: Pgp; conditions: in vitro models; cited from earlier work
# [2] = test system: CYP3A4; conditions: cited from earlier work
# [3] = human, in vivo
# [4] = test system: P-glycoprotein (Pgp); conditions: not told; cited from earlier work
# [5] = human, in vivo; remark: listed apart in the source
# [6] = subject 8 dosed with O-DVX, with indinavir therapy, 1 hr and 4 hrs
smiles,measurement,setting,value
CC(C)(C)NC(=O)[C@@H]1CN(Cc2cccnc2)CCN1C[C@@H](O)C[C@@H](Cc1ccccc1)C(=O)N[C@H]1c2ccccc2C[C@H]1O [indinavir],inhibition of Pgp,[1],potent inhibitor
CC(=O)N1CCN(c2ccc(OCC3COC(Cn4ccnc4)(c4ccc(Cl)cc4Cl)O3)cc2)CC1 (centres unmarked) [ketoconazole],reduction of N-desmethyl VX formation,[2],42%
"CN(C)CC(c1ccc(O)cc1)C1(O)CCCCC1 (centres unmarked) [O-DVX, O-desmethylvenlafaxine]",peak height ratio S- to R-enantiomer in plasma,[3],0.50-15.2
same,substrate of the drug transporter P-glycoprotein (Pgp),[4],substrates
same,S/R ratio of peak height in plasma,[5]; 1 h,0.83
same,S/R ratio of peak height in plasma,[5]; 4 h,0.98
same,S/R ratio of peak height in plasma,[6],remains less than one
"COc1ccc(C(CN(C)C)C2(O)CCCCC2)cc1 (centres unmarked) [VX, venlafaxine]",substrate of the drug transporter P-glycoprotein (Pgp),[4],substrates
